Data from ChEMBL document CHEMBL5724914, “Linking interpersonal differences in gut microbiota composition and drug biotransformation activity” (2024).

Legend:
[1] = human gut metagenome, 24 h, 2 µM
[2] = human gut metagenome, 24 h, 2 µM; remark: listed apart in the source
[3] = (§1) The drug is tested on Z-010 corresponding to metagenome with ENA study accession number: PRJEB37062 and ENA sample accession number: ERS12561810 for biotransformation under anaerobic condition. The drug concentrations were measured over 9 timepoints collected between 0 and 24 hours of incubation by liquid-chromatography-coupled mass spectrometry (LC–MS); details: 2 µM
[4] = (§2) The drug is tested on WLS-098 corresponding to human gut metagenome with ENA study accession number: PRJEB37062 and ENA sample accession number: ERS12561754 for biotransformation under anaerobic condition. The drug concentrations were measured over 9 timepoints collected between 0 and 24 hours of incubation by liquid-chromatography-coupled mass spectrometry (LC–MS); details: 2 µM
[5] = as §1, with “Z-004” for “Z-010”, “ERS12561804” for “ERS12561810”; details: 2 µM
[6] = as §1, with “Z-008” for “Z-010”, “ERS12561808” for “ERS12561810”; details: 2 µM
[7] = as §2, with “WLS-240” for “WLS-098”, “ERS12561773” for “ERS12561754”; details: 2 µM
[8] = human gut metagenome, 24 h, 2 µM; remark: listed apart in the source
[9] = as §2, with “WLS-220” for “WLS-098”, “ERS12561769” for “ERS12561754”; details: 2 µM
[10] = as §2, with “WLS-038” for “WLS-098”, “ERS12561745” for “ERS12561754”; details: 2 µM
[11] = human gut metagenome, 24 h, 2 µM; remark: listed apart in the source
[12] = human gut metagenome, 24 h, 2 µM; remark: listed apart in the source
[13] = human gut metagenome, 24 h, 2 µM; remark: listed apart in the source
[14] = human gut metagenome, 24 h, 2 µM; remark: listed apart in the source
[15] = as §2, with “WLS-007” for “WLS-098”, “ERS12561742” for “ERS12561754”; details: 2 µM
[16] = as §2, with “Z-020” for “WLS-098”, “rabbit” for “human”, “ERS12561819” for “ERS12561754”; details: 2 µM
[17] = human gut metagenome, 24 h, 2 µM; remark: listed apart in the source
[18] = as §2, with “WLS-073” for “WLS-098”, “ERS12561749” for “ERS12561754”; details: 2 µM
[19] = human gut metagenome, 24 h, 2 µM; remark: listed apart in the source
[20] = human gut metagenome, 24 h, 2 µM; remark: listed apart in the source
Note: call rule not given here.

SMILES	Bacterial Biotransformation [1]	Bacterial Biotransformation [2]	Bacterial Biotransformation [3]	Bacterial Biotransformation [4]	Bacterial Biotransformation [5]	Bacterial Biotransformation [6]	Bacterial Biotransformation [7]	Bacterial Biotransformation [8]	Bacterial Biotransformation [9]	Bacterial Biotransformation [10]	Bacterial Biotransformation [11]	Bacterial Biotransformation [12]	Bacterial Biotransformation [13]	Bacterial Biotransformation [14]	Bacterial Biotransformation [15]	Bacterial Biotransformation [16]	Bacterial Biotransformation [17]	Bacterial Biotransformation [18]	Bacterial Biotransformation [19]	Bacterial Biotransformation [20]
CN1C(=O)CCS(=O)(=O)C1c1ccc(Cl)cc1 (stereo not given) [CHLORMEZANONE]	Compound metabolized	Compound NOT metabolized	Compound NOT metabolized	Compound NOT metabolized	Compound NOT metabolized	Compound NOT metabolized	Compound metabolized	Compound NOT metabolized	Compound NOT metabolized	Compound NOT metabolized	Compound NOT metabolized	Compound NOT metabolized	Compound NOT metabolized	Compound NOT metabolized	Compound NOT metabolized	Compound NOT metabolized	Compound NOT metabolized	Compound NOT metabolized	Compound NOT metabolized	Compound metabolized
CCc1nc(N)nc(N)c1-c1ccc(Cl)cc1 [PYRIMETHAMINE]	Compound metabolized	Compound NOT metabolized	Compound NOT metabolized	Compound metabolized	Compound NOT metabolized	Compound NOT metabolized	Compound metabolized	Compound NOT metabolized	Compound NOT metabolized	Compound NOT metabolized	Compound NOT metabolized	Compound NOT metabolized	Compound NOT metabolized	Compound metabolized	Compound metabolized	Compound NOT metabolized	Compound NOT metabolized	Compound NOT metabolized	Compound NOT metabolized	Compound metabolized
CC(C)NCC(O)COc1ccc(COCCOC(C)C)cc1.CC(C)NCC(O)COc1ccc(COCCOC(C)C)cc1.O=C(O)/C=C/C(=O)O (stereo not given) [BISOPROLOL FUMARATE]	Compound metabolized	Compound NOT metabolized	Compound NOT metabolized	Compound metabolized	Compound NOT metabolized	Compound NOT metabolized	Compound metabolized	Compound NOT metabolized	Compound metabolized	Compound NOT metabolized	Compound NOT metabolized	Compound metabolized	Compound metabolized	Compound metabolized	Compound metabolized	Compound NOT metabolized	Compound NOT metabolized	Compound NOT metabolized	Compound NOT metabolized	Compound NOT metabolized
CN1CCN(C2=Nc3cc(Cl)ccc3Nc3ccccc32)CC1 [CLOZAPINE]	Compound metabolized	Compound NOT metabolized	Compound NOT metabolized	Compound metabolized	Compound NOT metabolized	Compound NOT metabolized	Compound metabolized	Compound metabolized	Compound metabolized	Compound NOT metabolized	Compound metabolized	Compound metabolized	Compound NOT metabolized	Compound metabolized	Compound NOT metabolized	Compound NOT metabolized	Compound metabolized	Compound NOT metabolized	Compound metabolized	Compound metabolized
CNC(=C[N+](=O)[O-])NCCSCc1csc(CN(C)C)n1 [NIZATIDINE]	Compound metabolized	Compound metabolized	Compound NOT metabolized	Compound metabolized	Compound NOT metabolized	Compound NOT metabolized	Compound NOT metabolized	Compound NOT metabolized	Compound NOT metabolized	Compound NOT metabolized	Compound metabolized	Compound NOT metabolized	Compound metabolized	Compound NOT metabolized	Compound NOT metabolized	Compound NOT metabolized	Compound NOT metabolized	Compound metabolized	Compound metabolized	Compound metabolized
CN1C(C(=O)Nc2ccccn2)=C(O)c2sccc2S1(=O)=O [TENOXICAM]	Compound NOT metabolized	Compound metabolized	Compound NOT metabolized	Compound NOT metabolized	Compound NOT metabolized	Compound NOT metabolized	Compound NOT metabolized	Compound NOT metabolized	Compound NOT metabolized	Compound NOT metabolized	Compound NOT metabolized	Compound NOT metabolized	Compound NOT metabolized	Compound NOT metabolized	Compound NOT metabolized	Compound NOT metabolized	Compound NOT metabolized	Compound NOT metabolized	Compound NOT metabolized	Compound NOT metabolized
CCOC(=O)[C@H](CCc1ccccc1)N[C@@H](C)C(=O)N1[C@H](C(=O)O)C[C@@H]2CCC[C@@H]21	Compound metabolized	Compound metabolized	Compound metabolized	Compound metabolized	Compound metabolized	Compound NOT metabolized	Compound metabolized	Compound metabolized	Compound metabolized	Compound metabolized	Compound metabolized	Compound metabolized	Compound metabolized	Compound metabolized	Compound metabolized	Compound metabolized	Compound metabolized	Compound metabolized	Compound metabolized	Compound metabolized
O=C1[C@H](CC[C@H](O)c2ccc(F)cc2)[C@@H](c2ccc(O)cc2)N1c1ccc(F)cc1 [EZETIMIBE]	Compound NOT metabolized	Compound NOT metabolized	Compound NOT metabolized	Compound metabolized	Compound NOT metabolized	Compound NOT metabolized	Compound metabolized	Compound metabolized	Compound metabolized	Compound NOT metabolized	Compound NOT metabolized	Compound metabolized	Compound metabolized	Compound NOT metabolized	Compound metabolized	Compound NOT metabolized	Compound metabolized	Compound metabolized	Compound NOT metabolized	Compound metabolized
